According to patent US3998963A, “Tertiary butyl substituted carbamoyl oxime pesticides” (priority 1975, dated 1976):
Converted amounts (≈) assume the structure as drawn.

What was measured:
Type in all cases: in vivo
[1] = test system: two-spotted mite (Tetranychus urticae Koch); assay: Mite Foliage Spray Test; details: foliar, 144 h, 6 days, read-out: Insect LD50, Mite
Protocol: (§1) Suspensions of the test compouns were prepared by dissolving one gram of compound in 50 milliliters of acetone in which had been dissolved 0.1 gram (10 percent of the weight of compound) of an alkylphenoxy polyethoxyethanol surfactant, as an emulsifying or dispersing agent. The resulting solution was mixed into 150 milliliters of water to give roughly 200 milliliters of a suspension containing the compound in finely divided form. The thus-prepared stock suspension contained 0.5 percent by weight of compound. The test concentrations in parts per million by weight employed in the tests described hereinbelow were obtained by appropriate dilutions of the stock suspension with water. The test procedures were as follows:
Adults and nymphal stage of the two-spotted mite (Tetranychus urticae Koch), reared on Tendergreen bean plants at 80±5 per cent relative humidity, were the test organisms. Infested leaves from a stock culture were placed on the primary leaves of two bean plants 6 to 8 inches in height, growing in a 21/2 inch clay pot. 150-200 Mites, a sufficient number for testing, transferred from the excised leaves to the fresh plants in a period of twenty four hours. Following the twenty four hour transfer period, the excised leaves were removed from the infested plants. The test compounds were formulated by diluting the stock suspension with water to give a suspension containing 500 parts of test compound per million parts of final formulation. The potted plants (one pot per compound) were placed on a revolving turntable and sprayed with 100-110 milliliters of test compound formulation by use of a DeVilbiss spray gun set at 40 psig. air pressure. This application, which lasted 25 seconds, was sufficient to wet the plants to run-off. As a control, 100-110 milliliters of a water solution containing acetone and emulsifier in the same concentrations as the test compound formulation, but containing no test compound, were also sprayed on infested plants. The sprayed plants were held at 80±5 per cent relative humidity for 6 days, after which a mortality count of motile forms was made. Microscopic examination for motile forms was made on the leaves of the test plants. Any individual which was capable of locomotion upon prodding was considered living.

[2] = test system: Mexican bean beetle (Epilachna varivestis, Muls.); assay: Mexican Bean Beetle Leaf Spray Test; details: 72 h, 3 days, read-out: Insect LD50, Beetle
Protocol: as §1
Mexican Bean Beetle Leaf Spray Test
Fourth instar lavae of the Mexican bean beetle (Epilachna varivestis, Muls.), reared on Tendergreen bean plants at a temperature of 80°±5° F. and 50±5 per cent relative humidity, were the test insects.
The test compounds were formulated by diluting the stock suspension with water to give a suspension containing 500 parts of test compound per million parts of final formulation. Potted Tendergreen bean plants of standard height and age were placed on a revolving turntable and sprayed with 100-110 milliliters of test comound formulation by use of a DeVilbiss spray gun set at 10 psig air pressure. This application, which lasted 25 seconds, was sufficient to wet plants to run-off. As a control, 100-110 milliliters of a water-acetone-emulsifier solution containing no test compound were also sprayed on infested plants. When dry, the paired leaves were separated and each was placed in a 9 centimeter Petri dish lined with moistened filter paper. Five randomly selected larvae were introduced into each dish, and the dishes were closed. The closed dishes were labeled and held at a temperature of 80°±5° F, for 3 days. Although the larvae could easily consume the leaf within 24 to 48 hours, no more food was added. Larvae which were unable to move the length of the body, even upon stimulation, were considered dead.

[3] = test system: house flies (Musca domestica, L.); assay: Fly Bait Test; details: Musca domestica, 24 hours, read-out: Insect LD50, Housefly
Protocol: as §1
Four to six day old adult house flies (Musca domestica, L.), reared according to the specifications of the Chemical Specialities Manufacturing Association (Blue Book, McNair-Dorland Co., N.Y. 1954; pages 243-244, 261) under controlled conditions of 80°±5° F. and 50±5 per cent relative humidity, were the test insects. The flies were immobilized by anesthetizing with carbon dioxide and twenty five immobilized individuals, males and females, were transferred to a cage consisting of a standard food strainer about five inches in diameter which was inverted over a wrapping-paper covered surface. The test compounds were formulated by diluting the stock suspension with a 10 per cent (by weight) sugar solution to give a suspension containing 500 parts of test compound per million parts of final formulation, by weight. Ten milliliters of the test formulation were added to a souffle cup containing a 1-inch square of an absorbent cotton pad. This bait cup was introduced and centered on the blotting paper under the food strainer prior to admitting the anesthetized flies. The caged flies were allowed to feed on the bait for 24 hours, at a temperature of 80°±5° F. and the relative humidity of 50±5 per cent.
(§2) In Table 1 are presented insect and rat toxicity data (bait tests) on a comparative basis of the compounds described above. […] Rat toxicity is also more meaningfully compared on the basis of molar weight LD50 values. The relative efficacy of the parent compounds as compared to the previously known derivatives and as compared to the new compounds of this invention is also shown in Table 1. The ratio of efficacy as contact poisons (immersion/bait) of the compounds tested against Armyworm and House Fly is presented in Table 2 along with the results of the phytotoxicity tests of the compounds on bean, corn, tomato and cotton.

[4] = test system: bean aphid (Aphis fabae Scop.); assay: Bean Aphid Foliage Spray Test; details: foliar, 24 hour holding period, read-out: Insect LD50, Aphid
Protocol: as §1
Bean Aphid Foliage Spray Test
Adults and nymphal stages of the bean aphid (Aphis fabae Scop.) reared on potted dwarf nasturtium plants at 65°-70° F. and 50-70 per cent relative humidity, constituted the test insects. For testing purposes, the number of aphids per pot was standardized to 100-150 by trimming plants containing excess aphids.
The test compounds were formulated by diluting the stock suspension with water to give a suspension containing 500 parts of test compound per million parts of final formulation.
The potted plants (one pot per compound tested) infested with 100-150 aphids, were placed on a revolving turntable and sprayed with 100 -110 milliliters of test compound formulation by use of a DeVilbiss spray gun set at 40 psig. air pressure. This application, which lasted 25 seconds, was sufficient to wet the plants to run-off. As a control, 100-110 milliliters of a water-acetone-emulsifier solution containing no test compound were also sprayed on infested plants. After spraying, the pots were placed on their sides on a sheet of white standard mimeograph paper which had peen previously ruled to facilitate counting. Temperature and humidity in the test room during the 24 hour holding period were 65°-70° F. and 50-70 per cent, respectively. Aphids which fell onto the paper and were unable to remain standing after being uprighted were considered dead. Aphids remaining on the plants were observed closely for movement and those which were unable to move the length of the body upon stimulation by prodding were considered dead. Per cent mortality was recorded for various concentration levels.

[5] = test system: southern armyworm (Spodoptera eridania, (Cram.)); assay: Southern Armyworm Leaf Spray Bait Test
Protocol: as §1
Southern Armyworm Leaf Spray Bait Test
Larvae of the southern armyworm (Spodoptera eridania, (Cram.)), reared on Tendergreen bean plants at a temperature of 80°±5° F. and a relative humidity of 50±5 per cent, constituted the test insects.
The test compounds were formulated by diluting the stock suspension with water to give a suspension containing 500 parts of test compound per million parts of final formulation. Potted Tendergreen bean plants of standard height and age were placed on a revolving turntable and sprayed with 100-110 milliliters of test compound formulation by use of a DeVilbiss spray gun set at 10 psig air pressure. This application, which lasted 25 seconds, was sufficient to wet plants to run-off. As a control, 100-110 milliliters of a water-acetone-emulsifier solution containing no test compound were also sprayed on infested plants. When dry, the paired leaves were separated and each one was placed in a 9 centimeter Petri dish lined with moistened filter paper. Five randomly selected larvae were introduced into each dish and the dishes were closed. The closed dishes were labeled and held at 80°-85° F. for 3 days. Although the larvae could easily consume the whole leaf within 24 hours, no more food was added. Larvae which were unable to move the length of the body, even upon stimulation by prodding, were considered dead. Per cent mortality was recorded for various concentration levels.
as §2

## CCSC(C)=NOC(=O)N(C)Sc1ccc(C(C)(C)C)cc1 [Compound 10]
[1]
  LC50: > 500 µg/mL
[2]
  LC50: 20 µg/mL (≈ 58.7 µM)
[3]
  LC50: 13 µg/mL (≈ 38.2 µM)
[4]
  LC50: 5 µg/mL (≈ 14.7 µM)
[5]; Spodoptera eridania, 72 h, leaf spray bait, 3 days, read-out: Insect LD50, Armyworm
  LC50: 14 µg/mL (≈ 41.1 µM)
[5]; bait, formula of footnote b is drawing 8
  (b) relative efficacy of derivative vs parent compound, Armyworm: 1.52
